Data published in BindingDB's records for doi:10.1007/s00044-007-9052-5 (Central Drug Research Institute, 2008).

Biological target: DNA ligase A (Mycobacterium tuberculosis (strain ATCC 25618 / H37Rv), UniProt P9WNV1)
Assay: Enzyme Assay
Excerpt: All assays have been carried out using procedures previously described by our group (Srivastava et al., 2005a; 2005b; 2007)

CC1(C)O[C@H]2OC(C(CCO)NCCCN[C@@H](CCO)C3O[C@@H]4OC(C)(C)O[C@@H]4[C@H]3OCc3ccccc3)[C@H](OCc3ccccc3)[C@H]2O1 (stereo partly specified) [Glycosylamine, 4]
IC50: 46.2 µM
